We go through 15 compounds from paper PMC11858207, “Discovery of Isobavachin, a Natural Flavonoid, as an Apolipoprotein E4 (ApoE4) Structure Corrector for Alzheimer’s Disease” (Molecules, 2025).

Values joined by “and” are separate entries in the source; they are usually repeats but may differ in a detail not shown here. Equal entries are not always repeated.

The target of one data set is T1, human recombinant ApoE3 (Homo sapiens, UniProt P02649).
T1 construct: purchased PeproTech
In words: Surface plasmon resonance (SPR) binding, ApoE3. The following applies: Biacore T200. From the text:
(§1) The top virtual hit Isobavachin was further subjected to surface plasmon resonance (SPR) analysis using Biacore T200 (Cytiva, Marlborough, MA, USA) to determine its binding constants with both the ApoE3 and ApoE4 proteins. Together with the human recombinant ApoE3 and ApoE4 proteins, a negative control protein 2′-deoxynucleoside 5′-phosphate N-hydrolase (His-Sumo-DNPH1) was also included in the SPR analysis. The His-Sumo-DNPH1 is structurally unrelated to ApoE proteins, while having a similar size as ApoE proteins (~30 KDa).
(§2) The biophysical binding analysis of ligands with ApoE3 and ApoE4 proteins was carried out using the SPR technique. Human recombinant ApoE3 or ApoE4 proteins were purchased from PeproTech (Cranbury, NJ, USA) and reconstituted according to the manufacturer’s instructions. The negative control protein was His-Sumo-DNPH1 (2′-deoxynucleoside 5′-phosphate N-hydrolase 1), produced in-house in E. coli by The Wistar Institute, Philadelphia. The proteins were covalently attached to a carboxymethyl dextran sensor chip (CMD700M, from Xantec bioanalytics, Düsseldorf, Germany) using standard amine coupling in HEPES buffered saline. The chip is first conditioned for 180 s at 10 µL/min with 1 M NaCl, 0.1 mM Na Borate, pH 9.0, and then activated with 250 mM EDC/100 mM NHS for 600 s at 10 µL/min. The ApoE3/4 and DNPH1 proteins diluted in 10 mM sodium acetate (pH 5.5 and 4.0, respectively) were injected and immobilized on respective flow cells. After immobilization, the remaining activated sites were blocked with 1 M ethanolamine at 10 µL/min for 180 s. Test compounds (purchased from Cayman Chemical (Ann Arbor, MI, USA) and MedChemExpress (Monmouth Junction, NJ, USA)) were first diluted in pure DMSO, which were then further diluted in the running buffer without DMSO (10 mM HEPES, pH 7.4, 150 mM NaCl, 0.005% Tween20) to match the DMSO concentrations of the sample and the running buffer. The association and dissociation times were 60s and 120s, respectively, and the flow rate was 30 µL/min. After each compound injection, the needle was washed in 50% DMSO to reduce compound carry-over. Solvent correction cycles were also included to correct for bulk refractive index changes associated with DMSO.

Another data set addresses T2, human recombinant ApoE4 (Homo sapiens, UniProt P02649, C130R).
T2 construct: purchased PeproTech
In words: Surface plasmon resonance (SPR) binding, ApoE4. Particulars: Biacore T200.
Description: as §1, §2

Data set [1] has as its target T3, His-Sumo-DNPH1 (2′-deoxynucleoside 5′-phosphate N-hydrolase 1) (Homo sapiens, UniProt O43598).
T3 construct: made in house; host or cells: E. coli
T3 sequence (O43598 1-174): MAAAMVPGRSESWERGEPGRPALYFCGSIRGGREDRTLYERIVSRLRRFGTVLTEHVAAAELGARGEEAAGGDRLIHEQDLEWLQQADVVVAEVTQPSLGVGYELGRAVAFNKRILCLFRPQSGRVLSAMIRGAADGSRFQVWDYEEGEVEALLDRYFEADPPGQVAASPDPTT
In words: Surface plasmon resonance (SPR) binding, negative control protein.
Description: as §1, §2

On the set-up of data set [2]: method as in PMID 29425649. The following applies: cited from earlier work.
For the next data set, the target named is ApoE4. The arrangement: method as in PMID 30933499. The following applies: experimental ApoE4 binding Kd reported by AbbVie team; read-out: NMR Kd; cited from earlier work.

T2 sequence (P02649 19-317 C130R): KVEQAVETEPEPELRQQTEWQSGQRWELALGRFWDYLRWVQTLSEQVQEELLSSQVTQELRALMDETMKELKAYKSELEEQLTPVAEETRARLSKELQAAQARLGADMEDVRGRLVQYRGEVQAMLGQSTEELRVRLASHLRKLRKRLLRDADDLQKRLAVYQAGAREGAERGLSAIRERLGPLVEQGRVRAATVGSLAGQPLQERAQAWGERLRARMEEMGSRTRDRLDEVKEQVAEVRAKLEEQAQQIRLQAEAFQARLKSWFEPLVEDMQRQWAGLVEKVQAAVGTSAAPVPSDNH
T1 sequence (P02649 19-317): as the sequence (P02649 19-317 C130R) above, with R112C counted along it

For the compound `CC(C)=CCc1cc2c(cc1O)O[C@H](c1ccc(O)cc1)CC2=O` [Bavachin], the Kd on human recombinant ApoE3 worked out at 59 µM; on human recombinant ApoE4, 64 µM. The “DNPH1 Kd” value in data set [1] is given as “No binding”.

Take `O=c1c(-c2ccc(O)cc2)coc2cc(O)ccc12` [Daidzein]: the Kd (on human recombinant ApoE3; on human recombinant ApoE4; in data set [1]) was over 100 µM in each case.

In the case of `O=c1c(-c2ccc(O)cc2)coc2cc(O)cc(O)c12` [Genistein], the Kd (at human recombinant ApoE3; on human recombinant ApoE4; in data set [1]) was over 100 µM each time.

For the compound `CC(C)=CCc1cc([C@@H]2CC(=O)c3ccc(O)c(CC=C(C)C)c3O2)ccc1O` [Glabrol], the Kd was over 100 µM at human recombinant ApoE3, 77 µM on human recombinant ApoE4 and over 100 µM in data set [1].

Consider `Oc1ccc(C2=Cc3ccc(O)cc3OC2)cc1` [Idronoxil], for which the Kd (on human recombinant ApoE3; on human recombinant ApoE4; in data set [1]) was over 100 µM in each case.

As to `CC(C)=CCc1c(O)ccc2c1O[C@H](c1ccc(O)cc1)CC2=O` [Isobavachin], the Kd is ~0.62 µM and 0.62 µM on human recombinant ApoE3; ~0.54 µM and 0.54 µM at human recombinant ApoE4; over 100 µM in data set [1]. For the same compound, the “blood–brain barrier (BBB) penetration” value in data set [2] is recorded as “readily penetrate”.

Take `COc1cc(O)c(CC=C(C)C)c2c1C(=O)CC(c1ccc(O)cc1)O2` (stereo not shown) [Isoxanthohumol]: the Kd at human recombinant ApoE3 is 38 µM; at human recombinant ApoE4, 40 µM; in data set [1] it was over 100 µM.

Consider `CC(C)=CCc1c(-c2ccc(O)cc2O)oc2c3c(cc(O)c2c1=O)OC(C)(C)C=C3` [Morusin], for which the Kd is over 100 µM on human recombinant ApoE3, over 100 µM at human recombinant ApoE4 and 69 µM in data set [1].

On to `CC(C)=CCc1c(-c2ccc(O)cc2O)oc2c(CC=C(C)C)c(O)cc(O)c2c1=O` [Mulberrin], for which the Kd (on human recombinant ApoE3; at human recombinant ApoE4; in data set [1]) was over 100 µM throughout.

Turning to `N=C(N)C1(c2cccc(Cl)c2)CCC1` [compound 83673143], the Kd at ApoE4 was 900 ± 108 µM.

Take `CC(C)(O)c1ccc(-c2cc(Cl)cc(C3(C(=N)N)CCC3)c2)cc1` [compound 137796780]: the Kd on ApoE4 is 30 ± 4 µM.

`N=C(N)C1(c2cc(Cl)cc(-c3ccccc3)c2)CCC1` [compound 155530661]: the Kd at ApoE4 is 230 ± 24 µM.

Regarding `CCNS(=O)(=O)c1ccc(-c2cc(Cl)cc(C3(C(=N)N)CCC3)c2)cc1` [compound 155552638], the Kd on ApoE4 was 20 ± 4 µM.

As for `N=C(N)C1(c2cc(Cl)cc(-c3ccc(CO)c(Cl)c3)c2)CCC1` [compound 155557185], the Kd at ApoE4 was 8 ± 3 µM.

For the compound `CC(=O)NCc1ccc(-c2cc(Cl)cc(C3(C(=N)N)CCC3)c2)cc1` [compound 155563897], the Kd on ApoE4 was 20 ± 3 µM.
